Values quoted from earlier work in patent US9867391B2, “Accelerating muscle recovery after immobilization-induced muscle atrophy” (NESTEC S.A., priority 2011, dated 2018).

System: muscle protein synthesis
Conditions: Kastanos et al. 2006

For CC(C)C[C@H](N)C(=O)O [leucine], the “muscle protein synthesis in young subjects” value (leucine added to the diet, young subjects) is listed as “did not increased muscle protein synthesis” and the “muscle protein synthesis in elderly” value (same leucine supplementation, elderly) is listed as “efficient”.
